From PMC6523531, “Mechanistic Studies on the Absorption-Enhancing Effects of Gemini Surfactant on the Intestinal Absorption of Poorly Absorbed Hydrophilic Drugs in Rats” (Pharmaceutics, 2019)

What was measured:
[1] = tested on: brush-border membrane vesicles (BBMVs); assay: Membrane fluidity of BBMVs by fluorescence polarization (fluorescence anisotropy); conditions: rat BBMVs, 37 °C, SLG-30 0.1-1.0% v/v, vs control, n = 4
Method: To prepare BBMVs, we followed the methods as reported previously with a slight modification. Briefly, an in situ small intestinal loop was prepared in each rat, as mentioned above, and then, PBS (pH 7.4) was administered into the loop. The fat was trimmed off from the small intestine and mesentery. Then, the whole small intestine was soaked in ice-cold PBS (pH 7.4). The small intestine was divided into 10 cm segments. Mucosa was scraped out with a slide glass from each of these segments and used for subsequent studies. BBMVs were prepared by the divalent cation precipitation method using MgCl2 in the presence of ethylenebis (oxyethylenenitrilo) tetraacetic acid (EGTA). Briefly, the collected mucosa was homogenized in a buffer containing mannitol (300 mM), EGTA (5 mM), and Tris (pH 7.4) (12 mM) by using a tissue homogenizer. An aqueous solution of 10 mM magnesium chloride was added to the homogenate. The homogenate was centrifuged at 3000× g for 15 min. The supernatant was then centrifuged at 32,000× g for 30 min. The pellet was resuspended in a buffer containing mannitol (300 mM), EGTA (5 mM), and Tris (pH 7.4) (12 mM) by using a 26-G needle. The protein concentration was determined by the BCA method using bovine serum albumin as a standard, and the final concentration was adjusted to 1 mg/ml in each Eppendorf tube. The samples were frozen by liquid nitrogen and kept at −80 °C for further studies.
The BBMVs (100 μg protein) were incubated with 1 μM DPH, with 0.5 μM tma-DPH or with 5 μM DNS-Cl in HEPES-Tris buffer (25 mM HEPES, 5.4 mM KCl, 1.8 mM CaCl2, 0.8 mM MgSO4, 140 mM NaCl, 5 mM glucose, pH 7.4 adjusted by 1 M Tris) in the dark at 37 °C for 30 min [25, 28]. Then, various concentrations (0.1% v/v, 0.25% v/v, 0.5% v/v, and 1.0% v/v) of SLG-30 were added. Then, the samples were incubated in the dark for 1 min at 37 °C. For the control group, the same procedure was carried out by adding the HEPES-Tris buffer only. The fluorescence intensities and the steady-state polarization of fluorescence expressed as the fluorescence anisotropy, r, of the labeled membrane vesicles were measured at 37 °C. The excitation and emission wavelengths were λex = 360 nm, and λem = 430 nm for DPH and tma-DPH and λex = 380 nm and λem = 480 nm for DNS-Cl. The measurements were carried out by using a Hitachi Spectrofluorometer (F-2000 Spectrofluorometer, Hitachi Seisakusho Corp, Yokohama, Japan) equipped with a polarizer set.
The fluorescence anisotropy (r) was calculated using the following equation: r=IV−IH/IV+2IH where IV and IH respectively represent the […] fluorescence intensities to the polarized excitation plane.

rat small intestines = assay: In situ closed-loop enteric absorption of CF with absorption enhancers; type: in vivo; conditions: for Enhancement Ratio (AUC with enhancer/AUC control without enhancer): CF 0.5 mg/kg, rat small intestine
Method: The enteric absorption of CF was examined by an in situ closed-loop method, as reported previously. The experiments were carried out in accordance with the guidelines of the Animal Ethics Committee at Kyoto Pharmaceutical University. The protocols were approved by this Committee (permit number: 16-12-069, permit date: 14 April 2016). The rats were starved overnight for approx. 16 h pre-dosing, but water was freely available. After inducing anesthesia with sodium pentobarbital which was administered intraperitoneally at a dose of 32 mg/kg body weight, the rats were placed under a heat lamp to maintain a body temperature at around 37 °C, and the intestines were exposed using a midline-abdominal incision. After the bile duct was ligated, the intestines were washed with phosphate buffered saline (PBS, pH 7.4), and the remaining buffer solution was expelled with air. Enteric cannulation was performed at both ends using polyethylene tubing, and the distal parts of the small intestines were clipped by forceps. The dosing solutions (3 mL) with or without absorption enhancers kept at 37 °C, were directly introduced into the lumen of the enteric loop through a cannulated opening in the proximal part of the small enteric loop, which was then closed by clipping with another forceps. The jugular vein was exposed, and approx. 0.3 mL of blood was collected via a direct puncture into heparinized syringes at predetermined time intervals up to 240 min. The samples were immediately centrifuged at 12,000 rpm (15,000× g) for a period of 5 min to obtain the plasma fraction, which was stored on ice for further analysis. CF fluorescence signals in these plasma samples were detected after the treatment with the same volume of acetonitrile using a fluorescence spectrophotometer, Powerscan1 HT supplied by BioTek Instruments (Winooski, VT, USA) at an excitation wavelength of 485 nm and an emission wavelength of 535 nm. There was no significant background fluorescence in the plasma when the fluorescence intensities of CF were determined in this study. The peak drug concentrations (Cmax) and the time to reach the peak drug concentrations (Tmax) in the plasma were directly determined from the plasma concentration–time profiles. The area under the curve (AUC) was calculated by the trapezoidal method from pre-dose (time zero) till the administration of the final sample. The absorption enhancement ratios of CF, with or without absorption enhancers, were calculated as follows: Absorption enhancement ratio = AUCwith enhancer/AUCcontrol without enhancer

Caco-2 cells = assay: Caco-2 cell damage by LDH release; type: cell-based, Human; conditions: after the transport studies, n = 6
Method: After the transport studies were over, the solution on the apical side of each well was collected. Cell injury caused by SLG-30 was determined by tracking the LDH release. The cell precipitate and the monolayers left on the filters were solubilized with 1% (v/v) Triton X-100. The solutions from apical sides and the lysates were centrifuged for 7 min at 200× g at a temperature of 4 °C. The activities of LDH in the supernatant were measured. (LDHrelease) stands for the activity of the LDH released into the apical side in the existence of SLG-30. (LDHcell) stands for the activity of the LDH obtained from the cell lysate. LDHreleased% was calculated by the following equation:LDHrelease% = LDHrelease × 100/(LDHrelease + LDHcells)

Caco-2 cell monolayers [2] = assay: Transepithelial electrical resistance (TEER) of Caco-2 cell monolayers; type: cell-based, Human
Method: (§1) Caco-2 cells (passage 45) were cultured in 175-cm^2 culture flask (Thermo Fisher Scientific™, Waltham, MA, USA). The culture medium consisted of DMEM containing 10% FBS, 0.1 mM MEM–NEAA, 2 mM glutamine, 100 U/mL penicillin, and 100 µg/mL streptomycin [30]. Cells were cultured in a humidified atmosphere of 5% CO2 at 37 °C. The culture medium was changed every two days. When the cultured Caco-2 cells became sub-confluent, they were seeded onto 12-mm Transwell® with 0.4-µm pore polycarbonate membrane inserts (Corning Inc., New York, NY, USA) at a density of 1 × 10^5 cells/insert. The transepithelial transport studies were performed when the transepithelial electrical resistance (TEER) values were more than 500 Ω·cm^2 (i.e., after 21 days). Briefly, after removing the incubation medium by aspiration, the apical and basal sides were washed thrice by Hank’s Balanced Salt (HBSS) solution (pH 7.4). The cells were incubated in HBSS (pH 6.0) for the apical side and HBSS (pH 7.4) for the basal side for 20 min at 37 °C. HBSS supplemented with 1 mg/mL glucose was used in all cell culture experiments. After removing the washing solution by aspiration, 500 µL of 10 µM CF in a HBSS (pH 6.0) solution with or without various concentrations (0.001% v/v, 0.01% v/v, 0.025% v/v, 0.05% v/v, and 0.1% v/v) of SLG-30, 0.1% (w/v) and 1% (w/v) NaGC or 0.05% (w/v) sodium laurate were added to the apical side at zero time, whereas precisely 1500 µL of HBSS (pH 7.4) was added to the basal side at 37 °C. The cells were kept at 37 °C and 5% CO2 and were continuously agitated on a shaker during the transport experiments.
(§2) The TEER values were measured by Millicell® (ERS-2 Volt-Ohm Meter, Billerica, MA, USA) at the predetermined times up to 24 h, and the initial values were considered as 100%. The samples from the basal side were withdrawn at predetermined time points up to 24 h. The samples were replaced with an equal volume of HBSS (pH 7.4). CF was determined as previously mentioned. The apparent permeability coefficients Papp (cm/s) for the transported CF was determined by the following equation: Papp=dXR/dt×1/A×1/C0 where Papp is the apparent permeability coefficient in centimeters per second, XR is the amount of CF in moles in the receptor side, dXR/dt is the flux across the monolayer, A is the diffusion area (i.e., in square centimeters), and C0 is the initial concentration of CF in the donor side in moles per milliliter.

Caco-2 cell monolayers [3] = assay: Transport of CF across Caco-2 cell monolayers; type: in vitro ADME, Human; conditions: 10 µM CF
Method: as §1, with “After removing the washing solution by aspiration, 500 µL of 10 µM CF in a HBSS (pH 6.0) solution with or without various concentrations (0.001% v/v, 0.01% v/v, 0.025% v/v, 0.05% v/v, and 0.1% v/v) of SLG-30, 0.1% (w/v) and 1% (w/v) NaGC or 0.05% (w/v) sodium laurate were added to the apical side at zero time, whereas precisely 1500 µL of HBSS (pH 7.4) was added to the basal side at 37 °C. The cells were kept at 37 °C and 5% CO2 and were continuously agitated on a shaker during the transport experiments.” left out
as §2, with “The samples from the basal side were withdrawn at predetermined time points up to 24 h. The samples were replaced with an equal volume of HBSS (pH 7.4).” left out

[4] = in situ closed loop, 0.5% (v/v) SLG-30, 0.5% (w/v) sodium laurate, 1% (w/v) sodium glycocholate

SMILES	fluorescence anisotropy of tma-DPH (outer lipid bilayers) ([1]; 0.5 μM tma-DPH)	fluorescence anisotropy of DPH (inner lipid bilayers) ([1]; 1 μM DPH)	fluorescence anisotropy of DNS-Cl (protein portion) ([1]; 5 μM DNS-Cl, p < 0.01)	Enhancement Ratio (AUC with enhancer/AUC control without enhancer) (rat small intestines; [4])	Tmax of CF (rat small intestines; plasma CF (0.5 mg/kg) given with enhancer into rat small intestine, in situ closed loop, 0.5% (v/v) SLG-30, 0.5% (w/v) sodium laurate, 1% (w/v) sodium glycocholate, mean ± S.E., n = 3)	activity of LDH released from Caco-2 cells vs control (Caco-2 cells; 0.05% (w/v) sodium laurate)	TEER values (Caco-2 cell monolayers [2]; 0.05% (w/v) sodium laurate, without recovering to the baseline)	increase of the transport of CF vs control (Caco-2 cell monolayers [3]; 0.05% (w/v) sodium laurate) [times]	AUC0→240 of CF higher than that of the control group (rat small intestines; rat in situ closed loop, 0.5% (v/v) SLG-30 or 1% (w/v) NaGC) [times]	release of LDH from Caco-2 cells vs control (Caco-2 cells; 0.1% (w/v) and 1% (w/v) NaGC)	TEER values (Caco-2 cell monolayers [2]; 0.1% (w/v) NaGC)	TEER values (Caco-2 cell monolayers [2]; 1% (w/v) NaGC)	effect on the transport of CF (Caco-2 cell monolayers [3]; 0.1% (w/v) NaGC)	increase of the transport of CF vs control (Caco-2 cell monolayers [3]; 1% (w/v) NaGC) [times]
CC(C)CCC[C@@H](C)[C@H]1CC[C@H]2[C@@H]3CC=C4C[C@@H](O)CC[C@]4(C)[C@H]3CC[C@]12C [cholesterol]	increased the fluorescence anisotropy	increased the fluorescence anisotropy	increased the fluorescence anisotropy	–	–	–	–	–	–	–	–	–	–	–
CCCCCCCCCCCC(=O)[O-].[Na+] [Sodium laurate, sodium laurate]	–	–	–	2.7	approximately 15 min	significantly increased	significantly reduced	94	–	–	–	–	–	–
C[C@H](CCC(=O)NCC(=O)[O-])[C@H]1CC[C@H]2[C@@H]3[C@H](O)C[C@@H]4C[C@H](O)CC[C@]4(C)[C@H]3C[C@H](O)[C@]12C.[Na+] [Sodium glycocholate, sodium glycocholate]	–	–	–	4.5	–	–	–	–	4.5	Neither 0.1% (w/v) nor 1% (w/v) of NaGC increased the release of LDH	Almost no effect	significantly decreased then recovered to the baseline	insignificant effect	5
